Results as given in PubChem BioAssay (NCI).
“And” between values parts separate entries of the source, which are not always exact repeats. Identical values can stand only once.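 Grown in 96-well plates, cells were treated for 48 hours with each compound at five concentrations. Insufficient inhibition: endpoint recorded as highest concentration tested. The concentration for 50% growth inhibition is given as GI50. TGI denotes the concentration required for complete inhibition of growth.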

Tests used:
Assay in all cases: DTP human tumour cell line panel, 48 h
MDA-MB-231 breast = test system: MDA-MB-231 breast
DU-145 prostate = test system: DU-145 prostate
TK-10 renal = test system: TK-10 renal
HOP-92 NSCLC = test system: HOP-92 NSCLC
SN12C renal = test system: SN12C renal
OVCAR-8 ovarian = test system: OVCAR-8 ovarian
HCT-15 colon = test system: HCT-15 colon
CCRF-CEM leukemia = test system: CCRF-CEM leukemia
SF-539 CNS = test system: SF-539 CNS
COLO 205 colon = test system: COLO 205 colon
EKVX NSCLC = test system: EKVX NSCLC
SF-268 CNS = test system: SF-268 CNS
HL-60(TB) leukemia = test system: HL-60(TB) leukemia
PC-3 prostate = test system: PC-3 prostate
MOLT-4 leukemia = test system: MOLT-4 leukemia
U251 CNS = test system: U251 CNS
HOP-62 NSCLC = test system: HOP-62 NSCLC
HCT-116 colon = test system: HCT-116 colon
UACC-62 melanoma = test system: UACC-62 melanoma
SNB-75 CNS = test system: SNB-75 CNS
NCI-H460 lung = test system: NCI-H460 lung
SNB-19 CNS = test system: SNB-19 CNS
SR leukemia = test system: SR leukemia
BT-549 breast = test system: BT-549 breast
NCI-H226 lung = test system: NCI-H226 lung
HT29 colon = test system: HT29 colon
IGROV1 ovarian = test system: IGROV1 ovarian
786-0 renal = test system: 786-0 renal
M14 melanoma = test system: M14 melanoma
HCC-2998 colon = test system: HCC-2998 colon
SK-MEL-2 melanoma = test system: SK-MEL-2 melanoma
OVCAR-3 ovarian = test system: OVCAR-3 ovarian
K-562 leukemia = test system: K-562 leukemia
SK-MEL-5 melanoma = test system: SK-MEL-5 melanoma
ACHN renal = test system: ACHN renal
OVCAR-5 ovarian = test system: OVCAR-5 ovarian
SK-OV-3 ovarian = test system: SK-OV-3 ovarian
RXF 393 renal = test system: RXF 393 renal
A498 renal = test system: A498 renal
SF-295 CNS = test system: SF-295 CNS
OVCAR-4 ovarian = test system: OVCAR-4 ovarian
LOX IMVI melanoma = test system: LOX IMVI melanoma
HS 578T breast = test system: HS 578T breast
SK-MEL-28 melanoma = test system: SK-MEL-28 melanoma
MALME-3M melanoma = test system: MALME-3M melanoma
NCI/ADR-RES ovarian = test system: NCI/ADR-RES ovarian
MDA-MB-435 = test system: MDA-MB-435
A549 NSCLC = test system: A549 NSCLC
KM12 colon = test system: KM12 colon
UACC-257 melanoma = test system: UACC-257 melanoma

## O=C(CCCCC(=O)N/N=C\c1ccccc1O)N/N=C\c1ccccc1O
MDA-MB-231 breast
  GI50: 1900 nM
  TGI: 57.5 µM
DU-145 prostate
  GI50: 5.22 µM
  TGI: > 100 µM
TK-10 renal
  GI50: 6400 nM
  TGI: > 100 µM
HOP-92 NSCLC
  GI50: 11.3 µM
  TGI: > 100 µM
SN12C renal
  GI50: 4.5 µM
  TGI: > 100 µM
OVCAR-8 ovarian
  GI50: 2600 nM
  TGI: > 100 µM
HCT-15 colon
  GI50: 2020 nM
  TGI: > 100 µM
CCRF-CEM leukemia
  GI50: 1290 nM
  TGI: > 100 µM
SF-539 CNS
  GI50: 3.66 µM
  TGI: > 100 µM
COLO 205 colon
  GI50: 3.67 µM
  TGI: > 100 µM
EKVX NSCLC
  GI50: 7.75 µM
  TGI: > 100 µM
SF-268 CNS
  GI50: 1720 nM
  TGI: > 100 µM
HL-60(TB) leukemia
  GI50: 3070 nM
  TGI: > 100 µM
PC-3 prostate
  GI50: 5.65 µM
  TGI: > 100 µM
MOLT-4 leukemia
  GI50: 3.01 µM
  TGI: > 100 µM
U251 CNS
  GI50: 3.09 µM
  TGI: > 100 µM
HOP-62 NSCLC
  GI50: 4.12 µM
  TGI: 71.8 µM
HCT-116 colon
  GI50: 3.69 µM
  TGI: > 100 µM
UACC-62 melanoma
  GI50: 2500 nM
  TGI: > 100 µM
SNB-75 CNS
  GI50: 3390 nM
  TGI: 20500 nM
NCI-H460 lung
  GI50: 3.14 µM
  TGI: > 100 µM
SNB-19 CNS
  GI50: 5.88 µM
  TGI: > 100 µM
SR leukemia
  GI50: 2840 nM
  TGI: > 100 µM
BT-549 breast
  GI50: 32 µM
  TGI: > 100 µM
NCI-H226 lung
  GI50: 3120 nM
  TGI: > 100 µM
HT29 colon
  GI50: > 100000 nM
  TGI: > 100 µM
IGROV1 ovarian
  GI50: 3.49 µM
  TGI: > 100 µM
786-0 renal
  GI50: 5.13 µM
  TGI: > 100 µM
M14 melanoma
  GI50: 3.39 µM
  TGI: > 100 µM
HCC-2998 colon
  GI50: 3.87 µM
  TGI: > 100 µM
SK-MEL-2 melanoma
  GI50: 6.66 µM
  TGI: > 100 µM
OVCAR-3 ovarian
  GI50: 3.87 µM
  TGI: > 100 µM
K-562 leukemia
  GI50: 3920 nM
  TGI: > 100 µM
SK-MEL-5 melanoma
  GI50: 3.22 µM
  TGI: > 100 µM
ACHN renal
  GI50: 3.53 µM
  TGI: > 100 µM
OVCAR-5 ovarian
  GI50: > 100 µM
  TGI: > 100 µM
SK-OV-3 ovarian
  GI50: 5.63 µM
  TGI: > 100 µM
RXF 393 renal
  GI50: 3.76 µM
  TGI: > 100 µM
A498 renal
  GI50: > 100 µM
  TGI: > 100 µM
SF-295 CNS
  GI50: 1980 nM
  TGI: 6.55 µM
OVCAR-4 ovarian
  GI50: 1730 nM
  TGI: > 100 µM
LOX IMVI melanoma
  GI50: 2300 nM
  TGI: > 100 µM
HS 578T breast
  GI50: 15.2 µM
  TGI: > 100 µM

## Cc1nc(Nc2ncc(C(=O)Nc3c(C)cccc3Cl)s2)cc(N2CCN(CCO)CC2)n1
MDA-MB-231 breast
  GI50: 19.7 nM [middle of 4 runs]
DU-145 prostate
  GI50: 158 nM [middle of 4 runs]
  TGI: > 10 µM and 20 µM and 13.5 µM
TK-10 renal
  GI50: 22.2 nM and 10.9 nM and 8.43 nM
OVCAR-8 ovarian
  GI50: 55.8 nM [middle of 4 runs]
HCT-15 colon
  GI50: 792 nM [middle of 4 runs]
SF-539 CNS
  GI50: 53.3 nM [middle of 4 runs]
SK-MEL-28 melanoma
  TGI: 29 µM and > 10 µM and 20 µM
SF-268 CNS
  GI50: 70.4 nM [middle of 4 runs]
MALME-3M melanoma
  GI50: 6.6 µM [middle of 4 runs]
U251 CNS
  GI50: 3.17 µM [middle of 4 runs]
UACC-62 melanoma
  GI50: 5.69 µM [middle of 4 runs]
SNB-75 CNS
  GI50: < 10 nM and 4.68 nM and < 11.1 nM
  TGI: 25.7 nM and 56.3 nM and 58.7 nM
NCI-H460 lung
  GI50: 8.34 µM [middle of 4 runs]
HT29 colon
  GI50: 19.7 nM and 19.3 nM and 27.2 nM
M14 melanoma
  GI50: 3.51 µM [middle of 4 runs]
K-562 leukemia
  GI50: < 10 nM and 2 nM
NCI/ADR-RES ovarian
  GI50: 3.2 µM [middle of 4 runs]
OVCAR-5 ovarian
  GI50: 38.1 nM [middle of 4 runs]
MDA-MB-435
  GI50: 5.7 µM [middle of 4 runs]
A549 NSCLC
  GI50: 49.9 nM [middle of 4 runs]
KM12 colon
  GI50: 7.66 µM [middle of 4 runs]
LOX IMVI melanoma
  GI50: 14.2 nM [middle of 4 runs]

## N=C(N)c1ccc(-c2ccc(-c3ccc(Cl)c(Cl)c3)s2)nc1
UACC-257 melanoma
  GI50: 2140 nM
  TGI: 4.77 µM
HL-60(TB) leukemia
  GI50: 1890 nM
  TGI: 4.39 µM
BT-549 breast
  GI50: 3.18 µM
  TGI: 31.6 µM
NCI-H226 lung
  GI50: 1940 nM
  TGI: 4.63 µM
SK-MEL-2 melanoma
  GI50: 3.43 µM
  TGI: 15.2 µM
SK-OV-3 ovarian
  GI50: 8.06 µM
  TGI: 31.8 µM
